assay: recombinant barcode read abundance after kanamycin selection (control-corrected) (log10(CPM+1)); higher = more efficient recombination; sequences stand for … in AGTGCAGAGAAAATCGGCCAGTTTTCTCTGCCTGCAGTCCGCATGCCGT…AGATTTATGCAGCGGACTGCCTTTCTCCCAAAGTGATAAACCGGACAGTATCATGGACCGGTTTTCCCGGTAATCCGTATTTGCAAGGTTGGTTTCACT; site = the 11-nt target
Procedure, shortened: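 Targets and IS621 bridge RNA target-binding loops were paired in oligos, each with a promoter, a barcode and the J23119-driven first 104 bridge RNA bases. A vector carrying the remaining 73 bp and a T7-inducible recombinase received these by Gibson cloning, and the pool was co-electroporated into E. coli with a donor plasmid. Duplicate plates contained chloramphenicol/ampicillin LB agar (control) or chloramphenicol/ampicillin/kanamycin with 0.1 mM IPTG. Recombination efficiency comes from averaged, control-corrected counts per million of recombinant-junction barcodes, reported as log10(CPM+1).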
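Further: IS621 recombinase and bridge RNA in Escherichia coli cells.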

| Sequence | recombinant barcode read abundance (log10) |
| --- | --- |
| AGCCCGCCTTGGGTTCTAACCTGTTGCCT (site AGCCCGCCTAG) | 0.358 |
| CTCAGGTCTTGGGTTCTAACCTGTTGCCA (site CTCAGGTCTAG) | 0.18 |
| ATGCCGACTTGGGTTCTAACCTGTTGCCT (site ATGCCCACTAG) | 0.0898 |
| TCACTTCCTTGGGTTCTAACCTGTTGCCT (site TCACTTCCTAG) | 0.0238 |
| CAATGGCCTTGGGTTCTAACCTGTTGCCT (site CAATGGCCTAG) | 0.571 |
| CTCCATGCTTGGGTTCTAACCTGTTGCCT (site CTCCATACTAG) | 0.325 |
| GTGAAGCCTTGGGTTCTAACCTGTTGCCT (site GTGAAGCCTAG) | 1.48 |
| ACGACTCCTTGGGTTCTAACCTGTTGCTG (site ACGTCTCCTCA) | 0.0836 |
| CAATCCTCTTGGGTTCTAACCTGTTGCCT (site AAATCCTCTAG) | 0.0785 |
| TAGGCGACTTGGGTTCTAACCTGTTGCTT (site TAGACGACTAA) | 0.177 |
| TGTAGTCCTTGGGTTCTAACCTGTTGCTT (site TGTAGTCCTAA) | 0.0506 |
| ATACCACCTTGGGTTCTAACCTGTTGCCT (site ATACCACCTAG) | 1.77 |
| ACAAGCACTTGGGTTCTAACCTGTTGCCT (site ACCATCACTAG) | 0.2 |
| CGAGGGCCTTGGGTTCTAACCTGTTGCCT (site CGAGGGGCTAG) | 0.0635 |
| TGGTACGCTTGGGTTCTAACCTGTTGCCT (site TGGTGCGCTAG) | 0.15 |
| AGGCCCACTTGGGTTCTAACCTGTTGCTC (site AGGTCCACTCA) | 0.166 |
| GCTTGAACTTGGGTTCTAACCTGTTGCTT (site GGTTGAACTAT) | 0.0501 |
| AATATAGCTTGGGTTCTAACCTGTTGCTA (site AATATAGCTTA) | 0.0685 |
| TGAGGGGCTTGGGTTCTAACCTGTTGCCT (site TGAGGGGCTAG) | 1.24 |
| CATTAACCTTGGGTTCTAACCTGTTGCCT (site TACTAACCTAG) | 0.208 |
| CTACTAGCTTGGGTTCTAACCTGTTGCAT (site CTACTAGCTGT) | 0.167 |
| AGGGTGTCTTGGGTTCTAACCTGTTGCTG (site AGGGTGCCTTA) | 0.105 |

| Sequence | recombinant barcode read abundance (log10) |
| --- | --- |
| AACATTCCTTGGGTTCTAACCTGTTGCCT (site CACATTCCTAG) | 0 |
| AGAGGGTCTTGGGTTCTAACCTGTTGCTT (site TGAGGGTCTAA) | 0.606 |
| GTCCCTCCTTGGGTTCTAACCTGTTGCTT (site GTCCCTCCTAT) | 0.453 |
| CGGTCATCTTGGGTTCTAACCTGTTGCCT (site CGGTCATCTAG) | 0.537 |
| CACCAGTCTTGGGTTCTAACCTGTTGCGG (site CACAAGTCTAC) | 0.0664 |
| TGGGTCCCTTGGGTTCTAACCTGTTGCTT (site TGAGTCCCTTA) | 0.272 |
| TACAGACCTTGGGTTCTAACCTGTTGCAG (site ACGGAGTCTTA) | 0.128 |
| TAGATCCCTTGGGTTCTAACCTGTTGCTT (site TAGATCCCTAA) | 0.528 |
| ATGAACCCTTGGGTTCTAACCTGTTGCGT (site ATGAACCCTAC) | 1.88 |
| CACCAGTCTTGGGTTCTAACCTGTTGCGG (site CACCAGTCTCC) | 2.14 |
| CTCCGCCCTTGGGTTCTAACCTGTTGCTT (site CTCCGTCCTAA) | 0.0629 |
| GTCAAGCCTTGGGTTCTAACCTGTTGCTG (site GTCAACCCTCA) | 0.184 |
| ATCAAGACTTGGGTTCTAACCTGTTGCCT (site ATTAAGACTAG) | 0.272 |
| TAATCGGCTTGGGTTCTAACCTGTTGCCT (site TAATCGCCTAG) | 0.0352 |
| CGGAATCCTTGGGTTCTAACCTGTTGCAT (site CGGAATCCTAA) | 0.297 |
| ACTTAGACTTGGGTTCTAACCTGTTGCCT (site ACTTAGACTTG) | 0 |
| TCAGCGACTTGGGTTCTAACCTGTTGCCT (site TCTGCGACTAG) | 0.39 |
| TCTCCAGCTTGGGTTCTAACCTGTTGCCT (site TCGCAAGCTAG) | 0.0305 |
| GGGTCGGCTTGGGTTCTAACCTGTTGCGA (site GGGTCGGCTAC) | 0.231 |
| AAGGCCGCTTGGGTTCTAACCTGTTGCCT (site AAGGTCGCTAG) | 0.259 |
| AATGGGCCTTGGGTTCTAACCTGTTGCCT (site AATGGGGCTAG) | 0.179 |
| TGGGGTACTTGGGTTCTAACCTGTTGCCT (site TGGCGTACTAG) | 0.097 |

| Sequence | recombinant barcode read abundance (log10) |
| --- | --- |
| CGCGCAGCTTGGGTTCTAACCTGTTGCCT (site CGCGCAGCTAG) | 0.267 |
| GACTCTCCTTGGGTTCTAACCTGTTGCGT (site GACTCTCCTAA) | 0.103 |
| TAGTGAACTTGGGTTCTAACCTGTTGCAC (site TAGTGAACTGT) | 0.347 |
| TATTGGACTTGGGTTCTAACCTGTTGCAT (site TATTGGACTGT) | 0.155 |
| CCACCGACTTGGGTTCTAACCTGTTGCCT (site CCACCGACTAG) | 0.0699 |
| GCTTGGTCTTGGGTTCTAACCTGTTGCGA (site CTAGCTCCTAA) | 0.173 |
| ACCCAGTCTTGGGTTCTAACCTGTTGCGG (site GTAAGTGCTAT) | 0.151 |
| ACTTAGACTTGGGTTCTAACCTGTTGCCT (site ACTTAGACTAG) | 1.02 |
| GAGCGCTCTTGGGTTCTAACCTGTTGCTC (site GAGCGCTCTCA) | 0.0599 |
| GGGTCCTCTTGGGTTCTAACCTGTTGCCA (site GGGTCCTCTAG) | 1.69 |
| TCGAACCCTTGGGTTCTAACCTGTTGCCT (site TCGAACCCTAG) | 0.639 |
| CTGTATACTTGGGTTCTAACCTGTTGCCA (site CTGTATACTTG) | 0.175 |
| TAGTGCTCTTGGGTTCTAACCTGTTGCCA (site TAGTGCTCTTG) | 1.16 |
| CTAAAGACTTGGGTTCTAACCTGTTGCAC (site CTAAAGACTGT) | 1.42 |
| ACCGCTTCTTGGGTTCTAACCTGTTGCCT (site AGCGCTTCTAG) | 0.0685 |
| GGGGATCCTTGGGTTCTAACCTGTTGCCT (site GAGGATCCTAG) | 0.679 |
| CGCACGTCTTGGGTTCTAACCTGTTGCTT (site CACAAGTCTAA) | 0.185 |
| CTAGACTCTTGGGTTCTAACCTGTTGCAA (site CTAGACTCTCT) | 0.287 |
| TGGGACTCTTGGGTTCTAACCTGTTGCCT (site TGCGACTCTAG) | 0.00712 |
| CTCAAACCTTGGGTTCTAACCTGTTGCTT (site CTCAAACCTAA) | 0.355 |
| ATGCGAGCTTGGGTTCTAACCTGTTGCCG (site ATGCGAGCTCC) | 0.358 |
| GCTTACCCTTGGGTTCTAACCTGTTGCTA (site TAGCTAGCTAC) | 0.0382 |

| Sequence | recombinant barcode read abundance (log10) |
| --- | --- |
| ATAGCCACTTGGGTTCTAACCTGTTGCCT (site ATAGCAACTAG) | 0.141 |
| GAGGCTCCTTGGGTTCTAACCTGTTGCCA (site GAGGCTCCTCG) | 0.0289 |
| CAGTCAGCTTGGGTTCTAACCTGTTGCCT (site CAGTCAGCTAG) | 1.16 |
| CTGGTGTCTTGGGTTCTAACCTGTTGCCT (site CTGGTGTCTAG) | 2.42 |
| CTAGATGCTTGGGTTCTAACCTGTTGCGA (site AGTTCATCTAT) | 0.0418 |
| CTGTATACTTGGGTTCTAACCTGTTGCCA (site CTATATACTTG) | 0.113 |
| ATCAAGACTTGGGTTCTAACCTGTTGCCT (site ATCAAGACTAG) | 1.42 |
| TGTATAGCTTGGGTTCTAACCTGTTGCTA (site TGTATAGCTTA) | 0.0299 |
| CTGCTACCTTGGGTTCTAACCTGTTGCCT (site CTGCTACCTAG) | 1.13 |
| AAGACTCCTTGGGTTCTAACCTGTTGCCT (site AAGACTCCTAG) | 0.824 |
| CTAGTGACTTGGGTTCTAACCTGTTGCGA (site CTAGTGACTAC) | 0.0588 |
| CGTCTAGCTTGGGTTCTAACCTGTTGCAT (site TCGGCCTCTTA) | 0.0729 |
| TATTGGACTTGGGTTCTAACCTGTTGCAT (site TATTGGACTCT) | 0.153 |
| GAAGCTCCTTGGGTTCTAACCTGTTGCGT (site GAAGCTCCTAC) | 2.81 |
| TGAGGGCCTTGGGTTCTAACCTGTTGCCT (site AGAGGTCCTAG) | 0.186 |
| CTACAGACTTGGGTTCTAACCTGTTGCGT (site CTACAGACTCC) | 0.229 |
| GTGAGGTCTTGGGTTCTAACCTGTTGCCT (site GTGAGGTCTAA) | 0.107 |
| CCAGTATCTTGGGTTCTAACCTGTTGCAT (site CCAGTATCTAT) | 0.796 |
| CTGGAGTCTTGGGTTCTAACCTGTTGCCT (site CTGGTGTCTAG) | 0.793 |
| AATGTACCTTGGGTTCTAACCTGTTGCCT (site AATGTACCTAG) | 1.89 |
